Legend:
[1] = Emission spectra, front-face illumination, excitation at 600 nm; type: physicochemical; conditions: for emission peak: in 0.5% intralipid; for emission maximum: in water
Description: All fluorescence measurements were performed using front-face illumination and detection, using the sample holder shown in FIG. 18. The incident light was redirected from the usual position using two mirrors. The position of the sample could be adjusted with a movable stage. The re-emergent light passed through one or more optical filters prior to reaching the destination.
The sample consisted of either a cuvette containing the intralipid, or a quartz slide covering the chicken muscle and skin (FIG. 19). Excitation at 600 nm was provided by the fundamental output of a rhodamine 6G dye laser. This dye laser was synchronously pumped by a mode-locked argon ion laser, and cavity dumped at 1.88 MHz.
For the present studies we used two fluorophores with ns decay times, Rh800 and IcG, and a long lifetime metal ligand complex. We refer to this long lifetime reference as the Ru complex (FIG. 1). All three fluorophores can be excited at 600 nm. In water Rh800 emits maximally near 706 nm, and IcG near 805 nm. […] The emission spectra of Rh800 and IcG in 0.5% intralipid is similar to those observed in water (FIG. 2).

[2] = Frequency-domain intensity decay (fluorescence lifetime) measurements; type: physicochemical; conditions: for decay time: Rh800 in 0.5% intralipid, Ru complex in PVA film
Description: Frequency domain intensity decay measurements were performed as described previously. Phase angles and modulation measurements at frequencies greater than 1.88 MHz were accomplished using the harmonic content of the picosecond pulses. The excitation was polarized vertically, and the emission detected without an emission polarizer. The re-emergent light was either observed directly, or through two cut-off filters (630 and 660 nm) to remove scattered light and/or attenuate the fluorophore emission relative to that of the long lived reference.
A long lifetime reference signal was provided by [Ru(bPY)2(dppz)](PF6)^2 in a polyvinyl alcohol (PVA) film, where bpy is 2,2′-bipyridine and dppz is dipyrido[3,2-a:2′,3′-cl]phenazine. Such metal-ligand complexes are known to display lifetimes from 100 ns to 13 (s. The intensity decay time of [Ru(bpy)2(dppz)](PF6)2 in the PVA film was near 800 ns (Table 1 as shown in FIG. 20).
The intensity decay data was analyzed in terms of the multi-exponential model [formula]
In this expression αi represents the pre-exponential factors associated with each lifetime τi. The fractional contribution of each decay time component to the steady state intensity is given by [formula]
The values of Σαi and Σfi are typically normalized to unity. The mean lifetime is given by [formula]
In the frequency-domain measurements the measured quantities are the phase shift of the emission […] and its modulation (m107) at the light modulation frequency ωi in radians/sec. The values of αi and τi are determined by non-linear least squares fitting and minimization of the goodness-of-fit parameter X^2R. [formula]
In this expression the subscript c refers to calculated values of φω and mω for assumed values of αi and τi and ν is the number of degrees of freedom. δω and δm represent the uncertainties in the measured values. In some cases we performed a global analysis of data measured at more than one fluorophore concentrations. In this case the sum in equation 3 extends over these multiple concentrations (k).
We examined the frequency-domain intensity decay of Rh800 and IcG in 0.5% intralipid. As the concentration of Rh800 increased the frequency response shifted to higher frequency (FIG. 5). […] In 0.5% intralipid the intensity decay of Rh800 becomes more complex. The data could be fit to a two decay time model. The individual decay times and the mean decay times decreased with increasing Rh800 concentrations (FIG. 6). Similar results are found for IcG, with the decay times and mean decay time decreasing with increasing IcG concentration (Table III, as shown in FIG. 22).

[3] = cited from earlier work
[4] = humans; cited from earlier work

| emission peak [1] | emission maximum [1] | intensity decay time ([2]; in water, no intralipid, single exponential) | Molecule | decay time [2] | intensity decay time in PVA film ([2]; polyvinyl alcohol film) | fluorescence in water [3] | clearance from circulation [4] |
| --- | --- | --- | --- | --- | --- | --- | --- |
| ~710 nm | ~706 nm | 0.686 ns | Rhodamine 800 [Rh800] | 1.62 ns |  |  |  |
|  |  |  | Ruthenium bis-2,2′-bipyridine dipyridophenazine [Ru complex] | 834 ns | ~800 ns | essentially non-fluorescent in water |  |
| ~820 nm | ~805 nm |  | CC1(C)C(/C=C/C=C/C=C/C=C2\N(CCCCS(=O)(=O)O)c3ccc4ccccc4c3C2(C)C)=[N+](CCCCS(=O)(=O)[O-])c2ccc3ccccc3c21 [IcG, indocyanine green] |  |  |  | rapidly cleared from circulation |
